From EPA's CvTdb concentration-time database (doi:10.1093/toxsci/kfy020)

Columns and labels:
Test in all cases: concentration in plasma after dosing
rat [1] = details: dosed: Triclosan, 1.0000000000 mg/kg, iv, male, Sprague-Dawley
rat [2] = details: dosed: Triclosan, 1.0000000000 mg/kg, iv, male, Sprague-Dawley; remark: listed apart in the source
rat [3] = details: dosed: Triclosan, 1.0000000000 mg/kg, iv, male, Sprague-Dawley; remark: listed apart in the source
rat [4] = details: male, Sprague-Dawley
rat [5] = details: dosed: Triclosan, 1.0000000000 mg/kg, iv, male, Sprague-Dawley; remark: listed apart in the source
rat [6] = details: dosed: Triclosan, 1.0000000000 mg/kg, iv, male, Sprague-Dawley; remark: listed apart in the source
rat [7] = details: dosed: Bisphenol A, 0.6000000000 mg/kg, iv, male, Sprague-Dawley
rat [8] = details: dosed: Bisphenol A, 0.6000000000 mg/kg, iv, male, Sprague-Dawley; remark: listed apart in the source
rat [9] = details: dosed: Propamocarb hydrochloride, 1.0000000000 mg/kg, iv, male, Sprague-Dawley
rat [10] = details: dosed: Propamocarb hydrochloride, 5.0000000000 mg/kg, oral, male, Sprague-Dawley
rat [11] = details: dosed: Propamocarb hydrochloride, 5.0000000000 mg/kg, oral, male, Sprague-Dawley; remark: listed apart in the source
rat [12] = details: dosed: Propamocarb hydrochloride, 1.0000000000 mg/kg, iv, male, Sprague-Dawley; remark: listed apart in the source
rat [13] = details: dosed: Propamocarb hydrochloride, 5.0000000000 mg/kg, oral, male, Sprague-Dawley; remark: listed apart in the source
rat [14] = details: dosed: Etoxazole, 2.0000000000 mg/kg, oral, male, Sprague-Dawley
rat [15] = details: dosed: Etoxazole, 0.4000000000 mg/kg, iv, male, Sprague-Dawley
rat [16] = details: dosed: Etoxazole, 0.4000000000 mg/kg, iv, male, Sprague-Dawley; remark: listed apart in the source
rat [17] = details: dosed: Etoxazole, 2.0000000000 mg/kg, oral, male, Sprague-Dawley; remark: listed apart in the source
rat [18] = details: dosed: Etoxazole, 0.4000000000 mg/kg, iv, male, Sprague-Dawley; remark: listed apart in the source
rat [19] = details: dosed: Etoxazole, 2.0000000000 mg/kg, oral, male, Sprague-Dawley; remark: listed apart in the source
rat [20] = details: dosed: Etoxazole, 2.0000000000 mg/kg, oral, male, Sprague-Dawley; remark: listed apart in the source

Oc1cc(Cl)ccc1Oc1ccc(Cl)cc1Cl [Triclosan]
concentration in plasma [ng/mL]
Details	0.5 h	1 h	2 h	5 min	10 min	72 h
rat [1]	102	24.9	–	469	374	–
rat [2]	5.7	10.4	5	1	2.1	2.9
rat [3]	24.8	6.4	–	270	129	6.2
rat [5]	23.9	6.6	–	72.7	36.7	–
rat [6]	200	–	–	903	367	–

rat [4], dosed: Triclosan, 1.0000000000 mg/kg, iv
Details	concentration in plasma [ng/mL]
0.5 h	39.6
5 min	474
10 min	211

CC(C)(c1ccc(O)cc1)c1ccc(O)cc1 [Bisphenol A]
rat [4], dosed: Bisphenol A, 0.6000000000 mg/kg, iv
Details	concentration in plasma [ng/mL]
0.5 h	85.6
1 h	29.2
5 min	392
10 min	302

concentration in plasma [ng/mL]
Details	0.5 h	1 h	5 min	10 min
rat [7]	94.3	30.7	310	151
rat [8]	60.5	34.5	299	189

CCCOC(=O)NCCCN(C)C.Cl [Propamocarb hydrochloride]
concentration in plasma [ng/mL]
Details	rat [9]	rat [10]	rat [11]	rat [12]	rat [13]
0.25 h	69.3	2.1	3.5	62.1	1.1
0.5 h	35.3	1.5	1.7	25.5	0.7
1 h	11	0.43	0.4	8.7	0.1
2 h	1.7	–	–	0.5	–
5 min	108	–	–	103	–

concentration in plasma [ng/mL], rat [4], dosed: Propamocarb hydrochloride
Details	0.25 h	0.5 h	1 h	2 h	5 min
1.0000000000 mg/kg, iv	57.8	26.2	9.6	1	134
5.0000000000 mg/kg, oral	8.1	4.9	1.6	–	–

CCOc1cc(C(C)(C)C)ccc1C1COC(c2c(F)cccc2F)=N1 (centres undefined) [Etoxazole]
concentration in plasma [ng/mL]
Details	rat [14]	rat [15]	rat [16]	rat [17]	rat [18]	rat [19]	rat [20]
0.25 h	9.12	–	–	14.6	–	15.1	15.8
0.5 h	16.8	43.6	60	23	20.5	22.4	18.5
1 h	25.3	15.7	18.9	33.7	7.3	29.7	23.8
2 h	31	4.19	4.7	24.3	2.78	31.5	7.62
4 h	9.37	1.89	0.86	11.9	1.69	13.6	2.16
5 min	–	126	142	–	78.2	–	–
8 h	–	0.28	0.54	10.3	0.69	5.34	4.85
10 min	–	72.5	66.8	–	50.2	–	–
12 h	–	–	–	1.45	0.56	1	1.6
24 h	–	–	0.36	0.53	0.3	0.46	0.18
48 h	–	–	–	0.12	0.14	0.2	–
72 h	–	–	–	0.13	–	0.16	–

rat [4], dosed: Etoxazole
Details	concentration in plasma [ng/mL]
0.25 h, 2.0000000000 mg/kg, oral	36
0.5 h, 0.4000000000 mg/kg, iv	31.1
0.5 h, 2.0000000000 mg/kg, oral	41.2
1 h, 0.4000000000 mg/kg, iv	14
1 h, 2.0000000000 mg/kg, oral	49.5
2 h, 0.4000000000 mg/kg, iv	3.62
2 h, 2.0000000000 mg/kg, oral	23.7
4 h, 0.4000000000 mg/kg, iv	1.53
4 h, 2.0000000000 mg/kg, oral	8.72
5 min, 0.4000000000 mg/kg, iv	145
8 h, 0.4000000000 mg/kg, iv	0.14
8 h, 2.0000000000 mg/kg, oral	11.7
10 min, 0.4000000000 mg/kg, iv	86.3
12 h, 2.0000000000 mg/kg, oral	1.84
24 h, 2.0000000000 mg/kg, oral	0.61
48 h, 2.0000000000 mg/kg, oral	0.15
72 h, 2.0000000000 mg/kg, oral	0.11
